Laboratory results published in US8703801B2, “Pyridinone hydroxycyclopentyl carboxamides: HIV integrase inhibitors with therapeutic applications” (University of Georgia Research Foundation, Inc., priority 2009, dated 2014).

Tested on: HIV
Assay: anti-HIV activity in cell culture
Type: cell-based
Conditions: Human immunodeficiency virus 1, in vitro

EC50 [nM]	SMILES
10	O=C(NN1CCCC1=O)/C(O)=C/C(=O)c1cc(Cc2c(F)cccc2F)cn(Cc2ccccc2F)c1=O [FIG. 1b]
25	O=C(N[C@H]1CCC[C@@H]1O)/C(O)=C/C(=O)c1cc(Cc2ccc(F)cc2F)cn(Cc2ccccc2F)c1=O [FIG. 1a]
